This is an account of results in patent US20240226041A1, “METHODS AND COMPOSITIONS FOR TREATMENT OF NEUROPATHIC PAIN USING STAT3 INHIBITORS” (priority 2021, published 2024).

In one data set the test system is DRG neurons. Kind of data set: Example 4: DRG neuron Ca2+ flux and multi-electrode array recording, SNI mice. In kind it is cell-based, mouse. Conditions: SNI mice with/without TTI-101 treatment. How it is done:
Spontaneous and evoked Ca^2+ flux in DRG neuron cultures is assessed. […] Electrical activity is assessed ex vivo using multi-electrode array recording. […] Assessment of Ca^2+ flux allows activity assessment with single cell resolution, which is important in a heterogeneous sensory population. Calcium imaging also serves as a more direct indicator of disruptions to calcium homeostasis i.e. mitochondrial dysfunction, which may result from injury and/or prolonged neuroinflammation. Electrical activity assessment can be carried out longitudinally and is a more proximate indicator of the likely level of sensory input driving neuropathic pain.

The next data set deals with sciatic nerves. Kind of data set: Bulk RNA-sequencing of sciatic nerves of SNI mice. Conditions: single dose 50 mg/kg i.p., 5 hours. In kind it is in vivo, mouse. How it is done:
5 hours later, sciatic nerves were isolated for bulk RNA-sequencing.

The next data set has as its system C57BL/6 mice. Kind of data set: Example 3: mouse SNI model, pain behavior, barrier function, leukocyte infiltration, inflammatory mediators. The format is in vivo. How it is done:
SNI surgery is carried out in C57BL/6 mice as previously described. Analgesia is limited to perioperative administration of buprenorphine SR (0.05 mg/kg SQ). […] Animals then are examined for behavioral pain sensitivity. Plantar mechanical sensitivity is assessed using hind paw stimulation with von Frey filaments. Frequency of hindlimb withdrawal in response to application of filaments of increasing force is used as a readout of mechanical sensitivity. Plantar cold sensitivity is tested using the plantar cold assay, in which hindpaw withdrawal in response to a cooling source is used as a readout of cold sensitivity. Testing is carried out after habituation at baseline (prior to surgery), then once weekly for 8 weeks following surgery. Daily testing of von Frey and cold sensitivity is carried out during the TTI-101 treatment window. Additional behavioral testing occurs weekly to more extensively validate analgesic efficacy and functional recovery. The mechanical conflict-avoidance (MCA) test uses a chamber of blunt probes to measure aversion to hindpaw mechanical stimuli and serves as an additional assessment of mechanical sensitivity. Plantar cold sensitivity is measured using the thermal gradient ring assay, which uses a temperature gradient to measure temperature preference/aversion. Finally, paw placement and other gait parameters are assessed using digital gait analysis (Catwalk XT) and a burrowing activity assay (spontaneous clearing of bedding material from a tube). […] All experiments are performed by observers blinded to the genotype and drug formulation administered. This additional behavioral testing is done from baseline (8 weeks)—prior to nerve injury—then weekly thereafter until 16 weeks of age. Mice are euthanized humanely by cardiac puncture and necropsy performed to remove the contralateral and ipsilateral sciatic nerves (SN) and dorsal root ganglia (DRG). […] Anticoagulated blood at both time points is used to measure levels of pro- and anti-inflammatory cytokines, including IL-4, IL-6, IL-10, IL-13, TGF-β and IFN-γ by Luminex. One portion of each SN and DRG is snap-frozen and another portion placed in formalin, then paraffin imbedded (FFPE). Cryotome sections of snap-frozen tissues are used to generate protein lysates for measurement of pY-STAT3, IL-1B and IL-6 by Luminex and Western blotting. […] Snap-frozen tissues are processed to isolate RNA for RNA sequencing (RNA-seq) analysis. Microtome sections of FFPE blocks are H&E stained and undergo immunohistochemistry staining and scoring for pY-STAT3, CD68 (macrophages), PGP9.5 (sensory nerves) and GAP43 (regenerating nerves). Detection of oxidative stress in sciatic nerve and DRG via IHC for nitrotyrosine, 4-hydroxynonenal and MnSOD is carried out. Vascular endothelium permeability in nerve is determined by quantifying the extravasation of the fluorescent dye sodium fluorescein. Cross-sections of the nerve are quantified using the EVOS fluorescence microscope, and mean fluorescence intensity and the percent area positive are determined using NIH ImageJ software. In a subset of mice, characterization of SN and DRG macrophage phenotype are analyzed using flow cytometry with conjugated antibodies against CD86, F4/80, CD163 and CD206.

For data set [1] the following is noted: 28-day GLP studies; cited from earlier work.
Data set [2] relates to male and female C57BL/6j mice. Kind of data set: Spared nerve injury (SNI) model, von Frey mechanical allodynia. The format is in vivo, mouse. How it is done: Data are shown as mean±SEM and were analyzed using two-way ANOVA followed by Sidak's post-hoc test. *P<0.05. […] Data are from 4 vehicle-treated and 5 TTI-101-treated male mice per group). Two-way ANOVA followed by Sidak's post-hoc test: P<0.05.
SNI induced profound mechanical allodynia in male and female mice.
Spared nerve injury (SNI). SNI surgery was performed on male and female C57BL/6j mice (8 weeks old; Jackson Laboratories), as described (Singhmar et al., 2020). The sural, common peroneal and tibial branches of the sciatic nerve of the left hind paw were exposed under isoflurane anesthesia. A silk suture was used to ligate the common peroneal and tibial branches and 2-4 mm of the distal ends were removed. The sural nerve was left intact. Mice received buprenorphine right before and 1 hour after surgery. […] Mechanical sensitivity was monitored over time using von Frey hairs.

Where [3] appears, read: 100 mg/kg oral gavage daily for 5 days.

Entries after “also recorded” stand apart in the source; their conditions may differ.

Turning to `COc1ccc(S(=O)(=O)Nc2cc(-c3c(O)ccc4ccccc34)c(O)c3ccccc23)cc1` [TTI-101], the “spontaneous activity and baseline cytosolic Ca2+ concentration in DRG neurons ipsilateral to injury” value in the data set on DRG neurons is “reverses elevations”. Also, the “genes significantly upregulated in sciatic nerve” value with sciatic nerves (adjusted p=<0.05) is listed as 41 genes. Besides, the “genes significantly downregulated in sciatic nerve” value in the data set with sciatic nerves (p=<0.05) is given as 148 genes. In the data set on C57BL/6 mice (setting [3]), the “antalgic gait patterns/burrowing aversion” value is “net reduction”; the “macrophage infiltration of SN and DRG” value was “net reduction”; the “mechanical and cold hypersensitivity” value is given as “net reduction”; the “plasma and tissue levels / pY-STAT3 in macrophages in SN and DRG” value was “achieves levels in the plasma and tissue adequate to reduce levels of pY-STAT3”. Besides, the RNA-seq gene signatures entry with C57BL/6 mice (SN and DRG) is “shifts RNA-seq gene signatures toward a net promotion of M2-like macrophage polarization, improved tight junction/barrier formation, reduced ROS production, and circulating pro-inflammatory markers”. Besides, the drug-related toxicity entry in data set [1] is “no drug-related toxicity up to the maximum dose administered”. The “SNI-induced mechanical allodynia, administration” value in data set [2] (50 mg/kg oral gavage from day 10 after SNI, male and female mice) was “reduced mechanical allodynia”. In addition, the “SNI-induced mechanical allodynia, repeated dosing” value in data set [2] (50 mg/kg oral gavage, 6 doses every other day from day 10 after SNI, male and female mice) was “complete reversal; also recorded: reverses SNI-induced allodynia”. Further, the “mechanical allodynia at 31 and 52 days after start of treatment” value in data set [2] (19 and 40 days after the last dose, male mice) was “no signs of mechanical allodynia”. Moreover, in data set [2] (after start of treatment, male mice), the “day until which beneficial effect was sustained” value is 52 days. Further, the “time after the last dose for which beneficial effect was sustained” value in data set [2] (male mice) was found to be 40 days.
